Patent US20080025970A1, “Treatment of atherosclerosis” (priority 2004, published 2008)

Tests used:
Format in all cases: cell-based
[1] = test system: adhesion of highly activated U937 cells to HSP60; assay: Adhesion of highly activated U937 cells to HSP60 coated wells; settings: at the lowest concentration tested; FIG. 9
[2] = test system: adhesion of monocytes to tissue sections of atherosclerotic plaque; assay: Adhesion of monocytes to tissue sections of atherosclerotic plaque
[3] = test system: adhesion of highly activated U937 cells to oxidised LDL; assay: Adhesion of highly activated U937 cells (PMA plus vitamin A and vitamin D) to oxidised LDL; settings: raft-disrupting agents; all concentrations tested; FIG. 5
Method: Plastic wells were coated with oxidised LDL, or fibronectin 10 μg/ml for 16 hrs at 4° C., and washed. Monocytes were isolated in an unactivated state from one unit of buffy coat cells by the method of Tsouknos et al^26, labelled with carboxyfluorescein for 30 mins, and washed. Inhibitors and control Ig UPC10 were added to the plates in 50 μL, and then 50 μL of cells at a final concentration of 3×10^6/ml in the assay. The plates were incubated at 37° C. for 1 hr. Non-adherent cells were removed by a standardised washing procedure, and after addition of cell suspension to 3 wells as the 100% control, the plates were measured in an automatic fluorescent spectrophotometer.
U937 cells were stimulated with PMA 10 ng/ml, plus vitamin A (1 ug/ml) and vitamin D (10^-7 M) for 16 hours, and then the assay was performed as in Example 3.
U937 cells were stimulated as in Example 5, and the experiment performed as in Example 3. The results are shown in FIG. 6, with the legend as in the previous figures. CD14, CD18, TLR-4 antibodies were all murine Igs. MOPC21:—control murine IgG1, UPC10:—control murine IgG2a.

Molecule	inhibition of binding of highly activated U937 cells to HSP60 [1]	inhibition of adhesion of monocytes to tissue sections of atherosclerotic plaque [2]	inhibition of activated U937 cell adhesion to oxidised LDL [3]
C[S+](C)[O-] [DMSO, Dimethylsulphoxide]	highly inhibitory	inhibits adhesion	
C[C@@H]1[C@H](O)[C@@H](C)/C=C/C=C/CC/C=C/C=C/C=C/C=C/C(O[C@H]2O[C@H](C)[C@@H](O)[C@H](N)[C@@H]2O)CC2O[C@](O)(CC(O)C(O)CCC(O)CC(O)CC(O)CC(=O)O[C@H]1C)CC(O)C2C(=O)O (stereo partly shown) [nystatin]			near-total inhibition
methyl cyclodextrin			near-total inhibition
